Assay results as given in patent publication US10463690B2, “Method and compositions for treating cancerous tumors” (priority 2016, dated 2019).

Legend:
[1] = placed on rats in a 60% of the body 3rd degree burn; cited from earlier work
[2] = test system: tumor; details: animal experiments; cited from earlier work
[3] = format: in vivo, Mice (SK1IPYMT 4913×SK1FVB)
Description: The purpose was to see how and where the test product spread throughout the body. Mice were euthanized so that internal cavity could be examined. Organs were cut in half for inspection of the extent of saturation.

[O][Cl+][O-] [ClO2, Chlorine dioxide]
toxicity [1]: no toxicity was indicated

NCCCC(N)(C(=O)O)C(F)F (stereo not shown) [DFMO, difuoromethylornithine]
effect on tumor growth [2]: reduced tumor growth

CN(C)c1ccc2nc3ccc(=[N+](C)C)cc-3sc2c1 [methylene blue, Methylene blue]
distribution of dye after injection into kidney ([3]; kidney injection): The entire kidney got saturated and the dye got into the urine but did not spread throughout the body
distribution of dye after injection into liver ([3]; liver injection): The dye did not spread past the injection site in the liver
